{"source": "paper PMC7961380", "about": "“A Systematic Study of the In Vitro Pharmacokinetics and Estimated Human In Vivo Clearance of Indole and Indazole-3-Carboxamide Synthetic Cannabinoid Receptor Agonists Detected on the Illicit Drug Market” (Molecules, 2021)", "key": {"[1]": {"details": "HLM, ref 14 (THJ-018, THJ-2201), 15 (NNEI, MN-18), 106 (NM-2201), 107 (BIM-2201), 95 (Cumyl-PICA, 5F-Cumyl-PICA), 108 (STS-135), 16 (AB-PINACA, 5F-AB-PINACA), 54 (5F-MDMB-PINACA), 109 (5F-APP-PICA, 5F-APP-PINACA, […], 69 (AB-FUBINACA), 17 (ADB-FUBINACA), 97 (FDU-PB-22, FUB-PB-22), cited from earlier work"}, "[2]": {"assay": "Metabolic stability, pooled human liver microsome incubations", "details": "pHLM; for Microsomal Intrinsic Clearance, CLint micr: n ≥ 3 ± SD", "method": "Total incubation volume was 500 µL. Procedure: Test compound working solutions (50 µM in potassium phosphate buffer (pH 7.4)) were prepared (<1% DMSO). pHLM were thawed and diluted in potassium phosphate buffer (pH 7.4). […] Reactions were quenched in 200 µL ACN spiked with donepezil (IS, 50 ng mL^−1). […] Samples were analysed by UPLC-MS/MS in a 96 deep-well 2 mL plate. Each SCRA was incubated at least in triplicate but additional incubations were carried out across a number of analytical batches, giving greater replication and a greater understanding of system variability. Microsomal scaling factors used for human liver microsome incubations in the literature vary. Intrinsic clearance and predicted in vivo clearance rates calculated using alternative scaling factors found in the literature is provided in Section S6 of the supplementary information, to aid comparison of data between publications.\nEquations used for in vitro intrinsic clearance calculation and human in vivo clearance […]\nThe equations used for in vitro intrinsic clearance calculation and human in vivo clearance estimation […]\nMicrosomal clearance (HLM incubations) in mL min-1 mg microsomal protein-1 [3]\nIntrinsic clearance (whole-liver dimensions) (HLM incubations) in mL min-1 kg-1 [3] CL = k x V x [Liver](g) x SF Eqn. 7 […]\nmg g microsomal protein-1 [7]\nIntrinsic clearance (whole-liver dimensions) (HHep incubations) in mL min-1 kg-1 [4] CL = k x V x hepatocytes/g liver x [Liver](g) Eqn. 8 […]\nWhere: hepatocytes/g liver = 107x10^6 cells/g liver\nHepatic clearance in mL min-1 kg-1 [3]\n[…] Eqn. 9\nWhere: Q = hepatic blood flow, 21 mL min-1 kg-1 [9]; fu = fraction unbound (plasma); CLint = […]\nEstimated human hepatic extraction ratio [5]\nIntrinsic clearance data – pooled human liver microsome incubations […]\ntable S4-28. Intrinsic clearance and predicted in vivo data calculated using alternative microsomal scaling factors found in the literature – 32 [10] and 45 [11] mg microsomal protein per gram liver – are provided in tables S29 and S30, respectively."}, "[3]": {"test_system": "pooled human cryopreserved hepatocytes (pHHeps)", "assay": "Metabolic stability, pooled human cryopreserved hepatocyte incubations", "details": "pHHeps"}}}
{"smiles": "NC(=O)[C@H](Cc1ccccc1)NC(=O)c1nn(CC2CCCCC2)c2ccccc12", "values": [{"measurement": "CLint micr", "setting": "[1]; 73 (5F-AMB-PINACA)", "value": 133, "unit": "µL/min/mg"}, {"measurement": "t1/2", "setting": "[1]; 57 (AMB-4en-PICA), 73 (AMB-PINACA, 5F-AMB-PINACA)", "value": 5.2, "unit": "min"}]}
{"smiles": "COC(=O)C(NC(=O)c1nn(CCCCCF)c2ccccc12)C(C)C", "note": "(stereo in doubt) [(R)-5F-AMB-PINACA (10), methyl [1-(5-fluoropentyl)-1H-indazole-3-carbonyl]valinate]", "values": [{"measurement": "% parent compound remaining, Average", "setting": "[2]; 3 min", "value": 64.1, "unit": "%"}, {"measurement": "% parent compound remaining, Average", "setting": "[2]; 6 min", "value": 51.0, "unit": "%"}, {"measurement": "% parent compound remaining, Average", "setting": "[2]; 9 min", "value": 38.0, "unit": "%"}, {"measurement": "% parent compound remaining, Average", "setting": "[2]; 15 min", "value": 21.7, "unit": "%"}, {"measurement": "% parent compound remaining, Average", "setting": "[2]; 30 min", "value": 6.8, "unit": "%"}, {"measurement": "Microsomal Intrinsic Clearance, CLint micr", "setting": "[2]", "value": "0.213 ± 0.014 mL min^−1 mg Microsomal Protein^−1"}, {"measurement": "% parent compound remaining, Average", "setting": "[3]; 3 min", "value": 69.9, "unit": "%"}, {"measurement": "% parent compound remaining, Average", "setting": "[3]; 6 min", "value": 35.6, "unit": "%"}, {"measurement": "% parent compound remaining, Average", "setting": "[3]; 9 min", "value": 28.2, "unit": "%"}, {"measurement": "% parent compound remaining, Average", "setting": "[3]; 15 min", "value": 12.1, "unit": "%"}, {"measurement": "% parent compound remaining, Average", "setting": "[3]; 30 min", "value": 3.1, "unit": "%"}, {"measurement": "% parent compound remaining, Average", "setting": "[3]; 45 min", "value": 0.9, "unit": "%"}, {"measurement": "% parent compound remaining, Average", "setting": "[3]; 60 min", "value": 0.2, "unit": "%"}]}
{"smiles": "COC(=O)C(NC(=O)c1cn(CC2CCCCC2)c2ccccc12)C(C)C", "note": "(stereo in doubt) [(R)-AMB-CHMICA (9), methyl [1-(cyclohexylmethyl)-1H-indole-3-carbonyl]valinate]", "values": [{"measurement": "% parent compound remaining, Average", "setting": "[2]; 3 min", "value": 73.0, "unit": "%"}, {"measurement": "% parent compound remaining, Average", "setting": "[2]; 6 min", "value": 53.6, "unit": "%"}, {"measurement": "% parent compound remaining, Average", "setting": "[2]; 9 min", "value": 47.4, "unit": "%"}, {"measurement": "% parent compound remaining, Average", "setting": "[2]; 15 min", "value": 30.4, "unit": "%"}, {"measurement": "% parent compound remaining, Average", "setting": "[2]; 30 min", "value": 11.3, "unit": "%"}, {"measurement": "Microsomal Intrinsic Clearance, CLint micr", "setting": "[2]", "value": "0.167 ± 0.019 mL min^−1 mg Microsomal Protein^−1"}, {"measurement": "% parent compound remaining, Average", "setting": "[3]; 3 min", "value": 62.7, "unit": "%"}, {"measurement": "% parent compound remaining, Average", "setting": "[3]; 6 min", "value": 61.2, "unit": "%"}, {"measurement": "% parent compound remaining, Average", "setting": "[3]; 9 min", "value": 45.1, "unit": "%"}, {"measurement": "% parent compound remaining, Average", "setting": "[3]; 15 min", "value": 26.7, "unit": "%"}, {"measurement": "% parent compound remaining, Average", "setting": "[3]; 30 min", "value": 11.8, "unit": "%"}, {"measurement": "% parent compound remaining, Average", "setting": "[3]; 45 min", "value": 5.9, "unit": "%"}, {"measurement": "% parent compound remaining, Average", "setting": "[3]; 60 min", "value": 3.2, "unit": "%"}]}
{"smiles": "COC(=O)C(NC(=O)c1nn(Cc2ccc(F)cc2)c2ccccc12)C(C)C", "note": "(stereo in doubt) [(R)-AMB-FUBINACA (1), methyl [1-(4-fluorobenzyl)-1H-indazole-3-carbonyl]valinate]", "values": [{"measurement": "% parent compound remaining, Average", "setting": "[2]; 3 min", "value": 57.2, "unit": "%"}, {"measurement": "% parent compound remaining, Average", "setting": "[2]; 6 min", "value": 46.7, "unit": "%"}, {"measurement": "% parent compound remaining, Average", "setting": "[2]; 9 min", "value": 34.5, "unit": "%"}, {"measurement": "% parent compound remaining, Average", "setting": "[2]; 15 min", "value": 20.5, "unit": "%"}, {"measurement": "% parent compound remaining, Average", "setting": "[2]; 30 min", "value": 6.8, "unit": "%"}, {"measurement": "Microsomal Intrinsic Clearance, CLint micr", "setting": "[2]", "value": "0.237 ± 0.020 mL min^−1 mg Microsomal Protein^−1"}, {"measurement": "% parent compound remaining, Average", "setting": "[3]; 3 min", "value": 41.1, "unit": "%"}, {"measurement": "% parent compound remaining, Average", "setting": "[3]; 6 min", "value": 22.5, "unit": "%"}, {"measurement": "% parent compound remaining, Average", "setting": "[3]; 9 min", "value": 21.4, "unit": "%"}, {"measurement": "% parent compound remaining, Average", "setting": "[3]; 15 min", "value": 12.3, "unit": "%"}, {"measurement": "% parent compound remaining, Average", "setting": "[3]; 30 min", "value": 2.7, "unit": "%"}, {"measurement": "% parent compound remaining, Average", "setting": "[3]; 45 min", "value": 0.9, "unit": "%"}, {"measurement": "% parent compound remaining, Average", "setting": "[3]; 60 min", "value": 0.8, "unit": "%"}]}
